Data on eight compounds can be found in PubChem BioAssay (NCI).

Some test systems named below: SNB-75 CNS; A549 NSCLC; HOP-62 NSCLC; SK-MEL-2 melanoma; SN12C renal; HT29 colon; HCT-15 colon; DU-145 prostate; MALME-3M melanoma; SR leukemia.
Common to all, as to assay: inhibition of tumour cell growth, NCI panel, 48 h

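Where inhibition never reached the appropriate level, the endpoint shown equals the highest concentration tested. Otherwise, values were interpolated linearly from a five-concentration, 48-hour dose response in 96-well plates. GI50 is the concentration that inhibits growth by half. At the TGI there is no net growth.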

Turning to `Cc1cc(C(=O)c2ccccc2)c(C)c2c1[nH]c1ccc(Cl)cc12`, the GI50 in the assay on SNB-75 CNS is 0.025 µM; in the assay on A549 NSCLC, 0.0834 µM; in the assay on HOP-62 NSCLC, 0.067 µM; in the assay on SK-MEL-2 melanoma it was 0.0829 µM; in the assay on SN12C renal, 0.117 µM; in the assay with HT29 colon, 0.0393 µM. Moreover, the GI50 in the assay with HCT-15 colon was 0.0492 µM; with DU-145 prostate, 0.112 µM; in the assay with MALME-3M melanoma, 0.0558 µM; in the assay with SR leukemia, 0.0383 µM. The TGI was 3.42 µM in the assay with SNB-75 CNS; > 100 µM with A549 NSCLC; 23 µM with HOP-62 NSCLC; 29.2 µM in the assay with SK-MEL-2 melanoma; 14.3 µM in the assay on SN12C renal; 1.93 µM in the assay on HT29 colon. The TGI with HCT-15 colon was 5.1 µM; in the assay with DU-145 prostate, > 42.1 µM; in the assay on MALME-3M melanoma, 15.9 µM; in the assay on SR leukemia, > 63.4 µM.

For the compound `CC1=NN(c2nc(N)nc(/C=C\c3ccc([N+](=O)[O-])s3)n2)C(C)(C)C1`, the GI50 in the assay on SNB-75 CNS was 29.9 µM; in the assay with A549 NSCLC it was > 100 µM; with HOP-62 NSCLC, > 100 µM; in the assay on SK-MEL-2 melanoma, > 100 µM; in the assay with SN12C renal, > 100 µM; in the assay with HT29 colon, 56.4 µM. Further, the GI50 in the assay with HCT-15 colon is > 100 µM; in the assay on DU-145 prostate, > 100 µM; in the assay on MALME-3M melanoma, > 100 µM; in the assay with SR leukemia it was 49.9 µM. In addition, the TGI with SNB-75 CNS, in the assay on A549 NSCLC, in the assay with HOP-62 NSCLC, in the assay with SK-MEL-2 melanoma, in the assay on SN12C renal and with HT29 colon was > 100 µM in each case. The TGI with HCT-15 colon, with DU-145 prostate, in the assay with MALME-3M melanoma and in the assay on SR leukemia was > 100 µM in each case.

`CC#Cc1nc(Nc2cc(C)[nH]n2)c2ccccc2n1`: the GI50 in the assay with SNB-75 CNS is 1.48 µM; in the assay on A549 NSCLC, 5.16 µM; in the assay with HOP-62 NSCLC, 12.4 µM; with SK-MEL-2 melanoma, 2.92 µM; with SN12C renal it was 3.08 µM; in the assay with HT29 colon it was 3.71 µM. Besides, the GI50 is 2.75 µM with HCT-15 colon, 7.47 µM in the assay on DU-145 prostate, 7.24 µM in the assay with MALME-3M melanoma and 5.07 µM with SR leukemia. Further, the TGI in the assay on SNB-75 CNS was determined as 15.4 µM; in the assay on A549 NSCLC it was 26.8 µM; with HOP-62 NSCLC it was 39.7 µM; with SK-MEL-2 melanoma, 8.38 µM; in the assay on SN12C renal it was 10.4 µM; in the assay on HT29 colon it was 16.9 µM. Further, the TGI is 12.8 µM in the assay on HCT-15 colon, 55 µM with DU-145 prostate, 25.2 µM in the assay on MALME-3M melanoma and > 100 µM in the assay with SR leukemia.

With `O=C(O)c1cc2ccccc2c2c1C(=O)c1ccccc1-2`, the TGI in the assay with SNB-75 CNS, in the assay with A549 NSCLC, with HOP-62 NSCLC, in the assay on SK-MEL-2 melanoma, in the assay with SN12C renal and in the assay on HT29 colon was > 100 µM throughout. Besides, the TGI in the assay on HCT-15 colon, in the assay with DU-145 prostate, with MALME-3M melanoma and with SR leukemia was > 100 µM in each case.

Take `CCCCCCCCCCCCCCCCCC(=O)Nc1ccn(C2OC(CO)C(O)C2O)c(=O)n1` (stereo not given): the TGI with SNB-75 CNS was > 94.6 µM; in the assay with A549 NSCLC, > 100 µM; in the assay with HOP-62 NSCLC, > 96.2 µM; in the assay on SK-MEL-2 melanoma, > 100 µM; in the assay with SN12C renal, > 100 µM; with HT29 colon, > 100 µM. Further, the TGI in the assay with HCT-15 colon was > 100 µM; with DU-145 prostate it was > 100 µM; in the assay with MALME-3M melanoma it was > 59.1 µM; with SR leukemia it was 56.4 µM.

Consider `Nc1ncc(-c2cccc(S(N)(=O)=O)c2)c2scc(-c3ccc(F)c(Cl)c3)c12`, for which the GI50 was 6.11 µM with SNB-75 CNS; 6.76 µM in the assay on A549 NSCLC; 5.47 µM in the assay on HOP-62 NSCLC; 5.88 µM in the assay on SK-MEL-2 melanoma; 5.74 µM in the assay with SN12C renal; 5 µM in the assay on HT29 colon. Further, the GI50 was 6.59 µM in the assay with HCT-15 colon, 5.55 µM in the assay on DU-145 prostate, 6.94 µM in the assay on MALME-3M melanoma and 7.12 µM in the assay on SR leukemia. For the same compound, the TGI in the assay with SNB-75 CNS is > 23 µM; with A549 NSCLC, > 25 µM; in the assay on HOP-62 NSCLC, 12.6 µM; with SK-MEL-2 melanoma, 10.9 µM; in the assay on SN12C renal, > 23.2 µM; with HT29 colon, 15.3 µM. The TGI in the assay on HCT-15 colon was > 25 µM; with DU-145 prostate, 15.3 µM; with MALME-3M melanoma it was 16.6 µM; with SR leukemia it was > 15.9 µM.

`COc1c(B(O)O)cc(F)cc1-c1nc2ccc3[nH]ncc3c2c2c1CCCC2`: the GI50 with SNB-75 CNS was < 0.01 µM; in the assay with A549 NSCLC, 1.17 µM; in the assay on HOP-62 NSCLC, < 0.0212 µM; in the assay with SK-MEL-2 melanoma, 2.67 µM; with SN12C renal, 1.15 µM; with HT29 colon it was 3.07 µM. Also, the GI50 with HCT-15 colon is 2.12 µM; in the assay with DU-145 prostate, 1.7 µM; with MALME-3M melanoma it was 3.54 µM; in the assay with SR leukemia it was 0.108 µM. Also, the TGI in the assay on SNB-75 CNS was 0.0607 µM; with A549 NSCLC, 16 µM; in the assay with HOP-62 NSCLC, 11.5 µM; in the assay with SK-MEL-2 melanoma it was 7.05 µM; in the assay on SN12C renal, 15.3 µM; in the assay with HT29 colon it was 21.1 µM. Further, the TGI in the assay with HCT-15 colon was 9.44 µM; in the assay on DU-145 prostate it was 12.9 µM; in the assay on MALME-3M melanoma it was 6.82 µM; with SR leukemia it was > 38.6 µM.

Take `COc1ccc2ccc3oc([N+](=O)[O-])cc3c2c1`: the GI50 was 0.166 µM in the assay on SNB-75 CNS; 0.197 µM with A549 NSCLC; 1.03 µM in the assay with HOP-62 NSCLC; 0.242 µM in the assay with SK-MEL-2 melanoma; 0.311 µM in the assay with SN12C renal; 0.202 µM in the assay on HT29 colon. Besides, the GI50 in the assay with HCT-15 colon is 0.218 µM; in the assay with DU-145 prostate, 0.123 µM; with MALME-3M melanoma, 0.187 µM; with SR leukemia, 0.0827 µM. For the same compound, the TGI with SNB-75 CNS turned out to be 0.527 µM; with A549 NSCLC it was 0.543 µM; in the assay on HOP-62 NSCLC, 6.34 µM; in the assay on SK-MEL-2 melanoma, 0.509 µM; with SN12C renal, 5.32 µM; with HT29 colon, 1.89 µM. The TGI with HCT-15 colon was 1.27 µM; in the assay on DU-145 prostate, 2.14 µM; in the assay with MALME-3M melanoma, 0.393 µM; with SR leukemia, 11.7 µM.
